Assay results from patent US10562909B2, “Fused quadracyclic compounds, compositions and uses thereof” (Tabomedex Biosciences, LLC, priority 2016, dated 2020).

Molecular target: MAPKAPK2 (Homo sapiens, UniProt P49137)
Test: MK2 Enzymatic Assay
Format: biochemical
Conditions: 0.5 nM MAPKAPK2, 3 μM ATP, 2 μM Ser/Thr4 peptide, 23° C., values given as concentration bins
Outline: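 MAPKAPK2 (2× stock 1 nM) and peptide substrate (2× 4 μM) were preincubated 20 min, then started with ATP (2× stock 6 μM) for 120 min. After 120 min development, coumarin/fluorescein emission ratio gave percent phosphorylation against 0% and 100% phosphopeptide controls.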

MAPKAPK2, sequence (P49137 whole entry, species assumed): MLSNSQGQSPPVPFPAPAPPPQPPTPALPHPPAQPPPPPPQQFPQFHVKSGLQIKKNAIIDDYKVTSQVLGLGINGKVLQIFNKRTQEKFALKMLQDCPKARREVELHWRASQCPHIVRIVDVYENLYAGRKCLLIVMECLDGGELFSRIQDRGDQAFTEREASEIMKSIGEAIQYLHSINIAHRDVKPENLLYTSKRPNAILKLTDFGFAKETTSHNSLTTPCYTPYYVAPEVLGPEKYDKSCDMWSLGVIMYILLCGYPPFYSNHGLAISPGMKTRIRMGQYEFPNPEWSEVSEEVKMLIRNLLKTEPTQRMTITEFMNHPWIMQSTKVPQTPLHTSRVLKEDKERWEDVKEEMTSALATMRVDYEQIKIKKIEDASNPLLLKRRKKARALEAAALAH

CN(C)C[C@@H]1CN(c2ccc3c(c2)Cn2cc(-c4ccc(C#N)cc4)cc2-c2nncn2-3)C[C@@H]1O [Compound 82, 4-(7-((3R,4R)-3-((dimethylamino)methyl)-4-hydroxypyrrolidin-1-yl)-9H-benzo[e]pyrrolo[1,2-a][1,2,4]triazolo[3,4-c][1,4]diazepin-12-yl)benzonitrile]
IC50: < 50 nM

Fc1ccc(-c2cc3n(c2)Cc2cc(N4CCC5(CNC5)C4)ccc2-n2cnnc2-3)cc1 [Compound 336, 12-(4-fluorophenyl)-7-(2,6-diazaspiro[3.4]octan-6-yl)-9H-benzo[e]pyrrolo[1,2-a][1,2,4] triazolo[3,4-c][1,4]diazepine]
IC50: < 50 nM

CN[C@@H]1CCN(c2ccc3c(c2)Cn2cc(-c4ccc(F)cc4)cc2-c2ncnn2-3)C1 [Compound 409, (R)-1-(12-(4-fluorophenyl)-9H-benzo[e]pyrrolo[1,2-a][1,2,4]triazolo[5,1-c][1,4]diazepin-7-yl)-N-methylpyrrolidin-3-amine]
IC50: 100 to 200 nM

N#Cc1ccc(-c2cc3n(c2)Cc2cc(N4CC[C@H](CN5CCC(O)CC5)C4)ccc2-n2ccnc2-3)cc1 [Compound 143, (R)-4-(7-(3-((4-hydroxypiperidin-1-yl)methyl)pyrrolidin-1-yl)-9H-benzo[e]imidazo[2,1-c]pyrrolo[1,2-a][1,4]diazepin-12-yl)benzonitrile]
IC50: < 50 nM

N#Cc1ccc(-c2cc3n(c2Cl)Cc2cc(N4CC[C@@H](CN)C4)ccc2-n2cnnc2-3)cc1 [Compound 169, (S)-4-(7-(3-(aminomethyl)pyrrolidin-1-yl)-11-chloro-9H-benzo[e]pyrrolo[1,2-a][1,2,4]tri-azolo[3,4-c][1,4]diazepin-12-yl)benzonitrile]
IC50: < 50 nM

N#Cc1ccc(-c2cc3n(c2)Cc2cc(N4CC[C@H]5NCC[C@@H]54)ncc2-n2cnnc2-3)cc1 (racemic) [Compound 314, 4-(7-(trans-hexahydropyrrolo[3,2-b]pyrrol-1(2H)-yl)-9H-pyrido[3,4-e]pyrrolo[1,2-a][1,2,4]triazolo[3,4-c][1,4]diazepin-12-yl)benzonitrile]
IC50: < 50 nM
